# Experimental data from patent US11767322B2 (BRISTOL-MYERS SQUIBB COMPANY, priority 2020, dated 2023).
# Read-outs that look alike come from different tables or passages of the source.
# Experiments:
# [1] = target: T1, His-GST-TVMV-hRIPK1(1-324) (Homo sapiens, UniProt Q13546); assay: biochemical; type: binding
# T1 construct: The coding region of human RIPK1(1-324) flanked by NdeI site at 5′ end; made in house; host or cells: Spodoptera frugiperda Sf9 insect cells (baculovirus, Bac-to-Bac)
# T1 sequence (Q13546 1-324): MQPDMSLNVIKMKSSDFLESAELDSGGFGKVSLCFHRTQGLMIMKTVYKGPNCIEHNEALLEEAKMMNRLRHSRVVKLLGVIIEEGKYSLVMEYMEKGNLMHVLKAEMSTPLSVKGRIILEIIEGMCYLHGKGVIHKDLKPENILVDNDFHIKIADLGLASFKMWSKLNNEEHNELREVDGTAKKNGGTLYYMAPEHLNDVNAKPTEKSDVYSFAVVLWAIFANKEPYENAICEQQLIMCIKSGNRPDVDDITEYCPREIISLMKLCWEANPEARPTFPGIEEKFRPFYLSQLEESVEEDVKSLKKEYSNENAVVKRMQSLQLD
# [2] = test system: MLKL phosphorylation in HT29-L23 human colorectal adenocarcinoma cells; assay: MLKL phosphorylation high-content assay; type: cell-based
# [3] = target: GST-tagged PIK3Cδ in complex with PIK3R1 (Homo sapiens, UniProt O00329); assay: PI3Kδ HTRF binding assay; conditions: HTRF probe displacement, 1 h at rt; read-out: PIK3CD IC50
# [4] = HTRF probe displacement, 1 h at rt, read-out: RIPK1 IC50
# [5] = read-out: pMLKL IC50, HT29-L23 cells, necroptosis induced with TNFα, SMAC mimetic and Z-VAD, 6 h, maximal inhibition defined by Nec1s
# [6] = Homo sapiens, 6 h, read-out: pMLKL IC50, HT29-L23 cells, necroptosis induced with TNFα, SMAC mimetic and Z-VAD, 6 h, maximal inhibition defined by Nec1s
# [7] = Table 22, compounds of the present invention, read-out: RPIK1 IC50
# [8] = read-out: pMLKL IC50, Table 22, compounds of the present invention
# Chain of GST-tagged PIK3Cδ in complex with PIK3R1 (O00329 whole entry): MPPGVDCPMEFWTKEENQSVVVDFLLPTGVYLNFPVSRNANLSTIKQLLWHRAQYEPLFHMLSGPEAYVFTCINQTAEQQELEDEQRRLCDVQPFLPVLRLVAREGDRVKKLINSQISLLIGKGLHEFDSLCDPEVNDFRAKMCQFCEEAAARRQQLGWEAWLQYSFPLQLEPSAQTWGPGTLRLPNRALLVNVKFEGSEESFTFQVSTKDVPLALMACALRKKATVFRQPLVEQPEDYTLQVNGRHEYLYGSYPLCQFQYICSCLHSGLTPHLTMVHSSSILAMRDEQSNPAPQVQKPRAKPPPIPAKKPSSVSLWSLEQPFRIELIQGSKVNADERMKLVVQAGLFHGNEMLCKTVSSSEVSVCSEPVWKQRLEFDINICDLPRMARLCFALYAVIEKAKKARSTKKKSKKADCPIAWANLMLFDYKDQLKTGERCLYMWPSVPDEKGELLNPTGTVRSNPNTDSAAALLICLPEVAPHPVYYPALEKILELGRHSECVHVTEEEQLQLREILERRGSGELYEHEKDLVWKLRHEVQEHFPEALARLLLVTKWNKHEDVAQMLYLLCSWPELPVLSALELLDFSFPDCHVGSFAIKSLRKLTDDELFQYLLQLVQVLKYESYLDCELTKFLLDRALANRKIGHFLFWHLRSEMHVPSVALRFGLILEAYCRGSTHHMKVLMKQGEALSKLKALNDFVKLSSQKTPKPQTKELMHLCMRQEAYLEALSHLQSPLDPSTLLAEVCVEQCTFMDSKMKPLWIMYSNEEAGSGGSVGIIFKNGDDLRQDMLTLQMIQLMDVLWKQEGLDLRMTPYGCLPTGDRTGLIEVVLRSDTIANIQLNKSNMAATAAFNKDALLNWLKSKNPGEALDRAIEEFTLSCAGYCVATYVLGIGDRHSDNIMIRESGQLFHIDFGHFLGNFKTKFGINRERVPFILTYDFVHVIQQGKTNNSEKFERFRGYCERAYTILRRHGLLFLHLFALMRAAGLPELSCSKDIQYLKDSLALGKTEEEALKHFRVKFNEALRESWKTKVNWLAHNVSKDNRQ
# Chain of GST-tagged PIK3Cδ in complex with PIK3R1 (P27986 whole entry partner): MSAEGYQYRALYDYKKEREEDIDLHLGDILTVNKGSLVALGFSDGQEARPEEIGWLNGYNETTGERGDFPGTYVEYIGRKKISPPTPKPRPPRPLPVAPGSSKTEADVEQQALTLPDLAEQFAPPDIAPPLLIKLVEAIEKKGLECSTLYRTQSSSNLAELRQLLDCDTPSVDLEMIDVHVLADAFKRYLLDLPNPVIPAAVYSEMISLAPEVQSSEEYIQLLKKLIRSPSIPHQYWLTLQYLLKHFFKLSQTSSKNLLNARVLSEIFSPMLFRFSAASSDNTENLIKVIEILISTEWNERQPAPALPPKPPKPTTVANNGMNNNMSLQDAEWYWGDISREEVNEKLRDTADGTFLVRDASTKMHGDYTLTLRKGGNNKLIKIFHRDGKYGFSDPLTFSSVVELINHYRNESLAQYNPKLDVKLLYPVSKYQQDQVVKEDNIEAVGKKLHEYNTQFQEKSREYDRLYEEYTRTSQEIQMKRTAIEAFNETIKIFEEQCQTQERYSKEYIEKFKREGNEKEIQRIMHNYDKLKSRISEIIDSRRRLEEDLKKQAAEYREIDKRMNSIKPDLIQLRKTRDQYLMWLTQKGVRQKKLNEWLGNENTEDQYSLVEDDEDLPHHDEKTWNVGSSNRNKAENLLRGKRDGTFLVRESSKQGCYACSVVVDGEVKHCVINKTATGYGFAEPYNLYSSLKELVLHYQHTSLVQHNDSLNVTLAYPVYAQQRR
Compound,"IC50 [1, 4]","IC50 [2, 5]",IC50 [3],"IC50 [2, 6]","IC50 [1, 7]","IC50 [2, 8]","IC50 ([2]; Homo sapiens, 6 h, HT29-L23 cells, necroptosis induced with TNFα, SMAC mimetic and Z-VAD, 6 h, maximal inhibition defined by Nec1s, read-out: pMLKL IC50)","IC50 ([2]; Homo sapiens, Table 22, compounds of the present invention, read-out: pMLKL IC50)"
"Cc1ccc(-c2ccn3nc(N)nc3c2)c(F)c1C(=O)NCCC(O)C1CCCCC1 (single isomer, unassigned) [Example 41, 3-(2-amino-[1,2,4]triazolo[1,5-a]pyridin-7-yl)-N-(3-cyclohexyl-3-hydroxypropyl)-2-fluoro-6-methylbenzamide]",5.4 nM,7.7 nM,> 15000 nM,,,,,
"Cc1cc(F)c(-c2ccn3nc(N)nc3c2)cc1C(=O)NCCC(O)c1ccc(Cl)cn1 (single isomer, unassigned) [Example 6, 5-(2-amino-[1,2,4]triazolo[1,5-a]pyridin-7-yl)-N-(3-(5-chloropyridin-2-yl)-3-hydroxypropyl)-4-fluoro-2-methylbenzamide]",5.8 nM,2.3 nM,> 15000 nM,,,,,
"CCc1ccc(-c2ccn3nc(N)nc3c2)c(F)c1C(=O)NCC(F)(F)C(O)c1ccc(F)cn1 (single isomer, unassigned) [Example 266, 3-(2-amino-[1,2,4]triazolo[1,5-a]pyridin-7-yl)-N-(2,2-difluoro-3-(5-fluoropyridin-2-yl)-3-hydroxypropyl)-6-ethyl-2-fluorobenzamide]",13 nM,,> 15000 nM,2.4 nM,,,,
"Nc1nc2cc(-c3ccc(Cl)c(C(=O)NCC(F)(F)C(O)c4ccc(Cl)c(F)c4)c3F)ccn2n1 (stereo not drawn) [Example 190, 3-(2-amino-[1,2,4]triazolo[1,5-a]pyridin-7-yl)-6-chloro-N-(3-(4-chloro-3-fluorophenyl)-2,2-difluoro-3-hydroxypropyl)-2-fluorobenzamide]",3.3 nM,,> 15000 nM,0.7 nM,,,,
"COc1cc(Cl)ccc1C(O)CCNC(=O)c1c(C)ccc(-c2ccn3nc(N)nc3c2)c1F (single isomer, unassigned) [Example 65, 3-(2-amino-[1,2,4]triazolo[1,5-a]pyridin-7-yl)-N-(3-(4-chloro-2-methoxyphenyl)-3-hydroxypropyl)-2-fluoro-6-methylbenzamide]",28 nM,,> 15000 nM,27 nM,,,,
"[2H]C([2H])(CC([2H])(O)c1ccc(Cl)cc1)NC(=O)c1c(C)ccc(-c2ccn3nc(N)nc3c2)c1F (single isomer, unassigned) [Example 53, 3-(2-amino-[1,2,4]triazolo[1,5-a]pyridin-7-yl)-N-(3-(4-chlorophenyl)-3-hydroxypropyl-1,1,3-d3)-2-fluoro-6-methylbenzamide]",1.2 nM,0.9 nM,14000 nM,,,,,
"Cc1ccc(-c2ccn3nc(N)nc3c2)c(F)c1C(=O)NCCC(O)C1CCCCC1 (single isomer, unassigned) [Example 42, 3-(2-amino-[1,2,4]triazolo[1,5-a]pyridin-7-yl)-N-(3-cyclohexyl-3-hydroxypropyl)-2-fluoro-6-methylbenzamide]",1.3 nM,2.8 nM,> 15000 nM,,,,,
"Cc1c(C(=O)NCC[C@H](O)c2ccc(Cl)cc2)cc(-c2ccn3nc(N)nc3c2)c(F)c1F [Example 99, (S)-5-(2-amino-[1,2,4]triazolo[1,5-a]pyridin-7-yl)-N-(3-(4-chlorophenyl)-3-hydroxypropyl)-3,4-difluoro-2-methylbenzamide]",5.5 nM,,> 15000 nM,2.9 nM,,,,
"Cc1ccc(-c2ccn3nc(N)nc3c2)c(F)c1C(=O)NC(C)CC(O)c1ccc(F)cc1 (single isomer, unassigned) [Example 37, 3-(2-amino-[1,2,4]triazolo[1,5-a]pyridin-7-yl)-2-fluoro-N-(4-(4-fluorophenyl)-4-hydroxybutan-2-yl)-6-methylbenzamide]",21 nM,41 nM,> 15000 nM,,,,,
"Cc1cc(F)c(-c2ccn3nc(N)nc3c2)c(F)c1C(=O)NCC[C@H](O)c1ccc(Cl)cc1 [Example 277, (S)-3-(2-amino-[1,2,4]triazolo[1,5-a]pyridin-7-yl)-N-(3-(4-chlorophenyl)-3-hydroxypropyl)-2,4-difluoro-6-methylbenzamide]",36 nM,,> 15000 nM,69 nM,,,,
"Cc1ccc(-c2ccn3nc(N)nc3c2)c(F)c1C(=O)NCC(F)(F)C(=O)c1ccc(F)cc1 [Example 281, 3-(2-amino-[1,2,4]triazolo[1,5-a]pyridin-7-yl)-N-(2,2-difluoro-3-(4-fluorophenyl)-3-oxopropyl)-2-fluoro-6-methylbenzamide]",7.2 nM,,> 15000 nM,1.3 nM,,,,
"Cc1ccc(-c2ccn3nc(N)nc3c2)c(F)c1C(=O)NCCC(O)c1ccc(F)c(F)c1 (single isomer, unassigned) [Example 67, 3-(2-amino-[1,2,4]triazolo[1,5-a]pyridin-7-yl)-N-(3-(3,4-difluorophenyl)-3-hydroxypropyl)-2-fluoro-6-methylbenzamide]",4.4 nM,1.3 nM,> 15000 nM,,4.4 nM,1.3 nM,,
"Cc1ccc(-c2ccn3nc(N)nc3c2)c(F)c1C(=O)NC(C)CC(O)c1ccc(F)cc1 (single isomer, unassigned) [Example 38, 3-(2-amino-[1,2,4]triazolo[1,5-a]pyridin-7-yl)-2-fluoro-N-(4-(4-fluorophenyl)-4-hydroxybutan-2-yl)-6-methylbenzamide]",4.7 nM,6 nM,> 15000 nM,,,,,
"Nc1nc2cc(-c3ccc(Cl)c(C(=O)NCC(F)(F)C(O)c4ccc(OC(F)F)cc4)c3F)ccn2n1 (stereo not drawn) [Example 187, 3-(2-amino-[1,2,4]triazolo[1,5-a]pyridin-7-yl)-6-chloro-N-(3-(4-(difluoromethoxy)phenyl)-2,2-difluoro-3-hydroxypropyl)-2-fluorobenzamide]",3.2 nM,1.7 nM,> 15000 nM,,,,,
"Nc1nc2cc(-c3ccc(Cl)c(C(=O)NCC(F)C(O)c4ccc(F)cc4)c3F)ccn2n1 (stereo not drawn) [Example 130, 3-(2-amino-[1,2,4]triazolo[1,5-a]pyridin-7-yl)-6-chloro-2-fluoro-N-(2-fluoro-3-(4-fluorophenyl)-3-hydroxypropyl)benzamide enantiomeric mixture 1]",7.4 nM,,4900 nM,2.9 nM,,,,
"Cc1ccc(-c2ccn3nc(N)nc3c2)c(F)c1C(=O)NCCC(c1ccccc1)C(F)(F)F (single isomer, unassigned) [Example 12, 3-(2-amino-[1,2,4]triazolo[1,5-a]pyridin-7-yl)-2-fluoro-6-methyl-N-(4,4,4-trifluoro-3-phenylbutyl)benzamide]",3 nM,9.2 nM,> 15000 nM,,,,,
"Cc1ccc(-c2ccn3nc(N)nc3c2)cc1C(=O)NCC[C@@H](O)c1ccc(Cl)cc1 [Example 159, (R)-5-(2-amino-[1,2,4]triazolo[1,5-a]pyridin-7-yl)-N-(3-(4-chlorophenyl)-3-hydroxypropyl)-2-methylbenzamide]",2.5 nM,,> 15000 nM,,2.5 nM,,1.9 nM,1.9 nM
"[2H]C([2H])(CC([2H])(O)c1ccc(Cl)cc1)NC(=O)c1c(C)ccc(-c2ccn3nc(N)nc3c2)c1F (racemic) [Example 14, 3-(2-amino-[1,2,4]triazolo[1,5-a]pyridin-7-yl)-N-(3-(4-chlorophenyl)-3-hydroxypropyl-1,1,3-d3)-2-fluoro-6-methylbenzamide]",1.1 nM,,> 15000 nM,1.1 nM,,,,
"Cc1c(C(=O)NC(C)CC(O)c2ccc(Cl)cc2)cc(-c2ccn3nc(N)nc3c2)c(F)c1F (racemic) [Example 101, 5-(2-amino-[1,2,4]triazolo[1,5-a]pyridin-7-yl)-N-(4-(4-chlorophenyl)-4-hydroxybutan-2-yl)-3,4-difluoro-2-methylbenzamide]",4.8 nM,2.9 nM,> 15000 nM,,,,,
"Cc1cc(F)c(-c2ccn3nc(N)nc3c2)cc1C(=O)NCCC(O)c1ccc(F)cc1 (single isomer, unassigned) [Example 10, 5-(2-amino-[1,2,4]triazolo[1,5-a]pyridin-7-yl)-4-fluoro-N-(3-(4-fluorophenyl)-3-hydroxypropyl)-2-methylbenzamide]",9.4 nM,2.5 nM,> 15000 nM,,9.4 nM,2.5 nM,,
"COc1ccc(-c2ccn3nc(N)nc3c2)c(F)c1C(=O)NCC(F)(F)C(O)c1ccc(Cl)c(Cl)c1 (stereo not drawn) [Example 268, 3-{2-amino-[1,2,4]triazolo[1,5-a]pyridin-7-yl}-N-[3-(3,4-dichlorophenyl)-2,2-difluoro-3-hydroxypropyl]-2-fluoro-6-methoxybenzamide]",3.8 nM,4.3 nM,8800 nM,,,,,
"Nc1nc2cc(-c3ccc(Cl)c(C(=O)NCC(F)(F)C(O)c4ccc(OC(F)F)cc4)c3F)ccn2n1 (stereo not drawn) [Example 186, 3-(2-amino-[1,2,4]triazolo[1,5-a]pyridin-7-yl)-6-chloro-N-(3-(4-(difluoromethoxy)phenyl)-2,2-difluoro-3-hydroxypropyl)-2-fluorobenzamide]",2.9 nM,0.2 nM,12000 nM,,,,,
